Consider three molecules from patent publication US20250375457A1, “TOPICAL PHARMACEUTICAL COMPOSITIONS AND USES THEREOF” (Shenzhen Pharmacin Co., Ltd., priority 2022, published 2025).

The conditions of series [1]: cited from earlier work.
A short description of series [2]: Solubility of midostaurin in solubilizer-water mixture systems. The format is physicochemical. The note with it: solubilizer-water mixtures, aqueous with cosolvent or surfactant or cyclodextrin, thermodynamic from solid, Transcutol, Labrasol, Tween 80, Cremphor EL, Kolliphor HS15 at 10%, 20%, 30% v/v in water, 25° C. As to the method:
The solubility of midostaurin in a system with water and a solubilizer combined at a certain ratio was also evaluated. The method involves adding excess amorphous midostaurin powders into various concentrations of solubilizer and water systems and mixed for 24 hours at 25° C. with 600 rpm to ensure equilibrium was achieved. Solubilizers selected for this study include Transcutol, Labrasol, Tween 80, Cremphor EL, and Kolliphor HS15. Each solubilizer is mixed with water at 10%, 20%, and 30% v/v, respectively, to form a system where amorphous midostaurin power was dissolved.

The nature of series [3]: Excipient compatibility study (impurities by HPLC). In kind it is physicochemical. The note with it: 1:200 (w/w), 60° C. for 10 days. As to the method:
Midostaurin was mixed with many excipients used in topical formulations at 1:200 (w/w) and was placed at 60° C. for 10 days before testing.

Series [4] is described as follows: Equilibrium solubility of midostaurin in different solvents (HPLC). The format is physicochemical. The note with it: thermodynamic from solid, 25° C., 24-72 hours. On the procedure: Many different solvents were evaluated for their compatibility with midostaurin. […] Solubility was measured by HPLC.
Another series concerns British guinea pigs. In kind it is in vivo. The note with it: single skin application 0.2 mL/site, irradiation 10±1 J/cm^2, observed to 72 hours.

SMILES strings stand for the structures. Read-outs that look alike come from different tables or passages of the source.

Procedure for British guinea pigs: Phototoxicity of midostaurin cream was tested using British guinea pigs as a model. Male guinea pigs were randomly divided into groups and given a single skin application of physiological saline (negative control), 8-MOP (positive control), 1.0% midostaurin cream, and midostaurin cream blank matrix. The dose given is 0.2 mL/site and the administration site was fixed after the treatment was applied. After 0.5 hours, the administration site was irradiated by the sunlight simulator of Dr. Hönle AG (SOL500) to reach the specified irradiation amount of 10±1 J/cm^2. The irradiance was measured with a UV radiometer equipped with type UVA FO from Dr. Hönle AG. The first day of dosing is designated as day 1 of the trial (Day 1). After the irradiation, the skin irritation of the administration site was observed and scored at 1+0.5 hours, 24 hours, 48 hours and 72 hours, respectively.

Regarding `Oc1ccc(O)cc1` [Hydroquinone, hydroquinone], the “log P” value in series [1] was 1.09.

As to `CO[C@@H]1[C@H](N(C)C(=O)c2ccccc2)C[C@H]2O[C@]1(C)n1c3ccccc3c3c4c(c5c6ccccc6n2c5c31)C(=O)NC4` [Midostaurin, midostaurin], the solubility at 24 h in series [2] was under 10000 µg/mL. For the same molecule, the “Impurity results (%) RRT 0.91” value in series [3] is 0.07%. Also, the “Impurity results (%) RRT 0.93” value in series [3] was determined as 0.11%. Further, in series [3], the “Impurity results (%) RRT 0.97” value is 0.12%. Moreover, in series [3], the “Impurity results (%) RRT 1.00 (midostaurin assay content)” value turned out to be 99.64%. Further, the “Impurity results (%) RRT 1.10” value in series [3] was found to be 0.06%. Besides, the solubility in series [4] (oil or lipid, corn oil, read-out: solubility in corn oil) was under 10000 µg/mL; in series [4] (oil or lipid, soybean oil, read-out: solubility in soybean oil), under 10000 µg/mL; in series [4] (organic solvent or mixture, Labrasol, read-out: solubility in Labrasol), over 50000 µg/mL; in series [4] (organic solvent or mixture, Tween 80, read-out: solubility in Tween 80) it was over 50000 µg/mL; in series [4] (organic solvent or mixture, ethanol, read-out: solubility in ethanol), under 10000 µg/mL; in series [4] (organic solvent or mixture, glycerol, read-out: solubility in glycerol), under 10000 µg/mL. Moreover, the “log P” value in series [1] was 5.27.

As to `COc1c2occc2cc2ccc(=O)oc12` [Lot 8-MOP], the “phototoxicity (edema and erythema at administration site after UV irradiation)” value in the series with British guinea pigs is “Edema and erythema”.

By log P is commonly meant a log measure of how a compound divides between an organic and an aqueous phase. What is called solubility is the concentration that dissolves in the medium under given conditions.
